According to patent publication US8575135B2 (Gilead Sciences, Inc., priority 2011, dated 2013):
pEC50: −log10 of the molar value. Where two headings read alike, the source gives them in different places.

Tests used:
Experiment in all cases: microbe, parasite or virus in culture
[1] = tested on: stable HCV 1a RLuc replicon cells (genotype 1a H77 replicon); format: cell-based; conditions: Hepatitis C virus
[2] = tested on: stable HCV 1b RLuc replicon cells (genotype 1b Con1 replicon); format: cell-based; conditions: Hepatitis C virus
[3] = tested on: stable HCV 2a JFH-1 Rluc replicon cells (L31 present in NS5A); format: cell-based; conditions: Hepatitis C virus
[4] = tested on: NS5A chimeric genotype 2a JFH-1 replicon with genotype 2a J6 strain NS5A gene (M31 present); format: cell-based, HCV; conditions: Hepatitis C virus
[5] = tested on: NS5A chimeric genotype 2a JFH-1 replicon with genotype 2b MD2b-1 strain NS5A gene (M31 present); format: cell-based, HCV; conditions: Hepatitis C virus
Summary of the method: (§1)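 Genotype 3a (S52) and 4a (ED43) NS5A chimeras use 1b Con1 Pi-RLuc replicons, transfected transiently; 2b MD2b-1 NS5A chimera (M31) uses 2a JFH-1 RLuc-Neo replicon, transient or stable.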

[6] = tested on: NS5A chimeric genotype 1b Con1 replicon with genotype 3a S52 strain NS5A gene; format: cell-based, HCV; conditions: Hepatitis C virus; for pEC50: read-out: 3a; for EC50: read-out: 3a (nM)
Summary of the method: as §1

[7] = tested on: NS5A chimeric genotype 1b Con1 replicon with genotype 4a ED43 strain NS5A gene; format: cell-based, HCV; conditions: Hepatitis C virus
[8] = tested on: 1a Pi-Rluc replicon with Q30R in genotype 1a NS5A; format: cell-based, HCV; conditions: Hepatitis C virus; for pEC50: read-out: 1a Q30R; for EC50: read-out: 1a Q30R (nM)
Summary of the method: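 Q30R introduced by site-directed mutagenesis into genotype 1a Pi-RLuc replicon; RNA transiently transfected into Huh-7-derived cured-51 cells.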

Compound	pEC50 ([1]; read-out: 1a)	EC50 ([1]; read-out: 1a (nM))	EC50 ([2]; read-out: 1b (nM))	pEC50 ([3]; read-out: 2a JFH)	EC50 ([3]; read-out: 2a JFH (nM))	pEC50 ([4]; read-out: 2a J6)	EC50 ([4]; read-out: 2a Jb (t) (nM))	pEC50 ([5]; read-out: 2b)	EC50 ([5]; read-out: 2b (t) (nM))	EC50 ([5]; read-out: 2b (s) (nM))	pEC50 ([7]; read-out: 4a)	EC50 ([7]; read-out: 4a (s) (nM))	further results
CCC(C)C(NC(=O)OC)C(=O)N1CC(COC)C[C@H]1c1nc2ccc3cc4c(cc3c2[nH]1)OCc1cc(-c2cnc(C3C[C@H](C)CN3C(=O)[C@@H](NC(=O)OC)C(C)CC)[nH]2)ccc1-4 (stereo in doubt) [Example QE, Methyl {(3R)-1-[(2S,4S)-2-(9-{2-[(2S,4S)-1-{(2S,3R)-2-[(methoxycarbonyl)amino]-3-methylpentanoyl}-4-methylpyrrolidin-2-yl]-1H-imidazol-5-yl}-1,11-dihydroisochromeno[4′,3′:6,7]naphtho[1,2-d]imidazol-2-yl)-4-(methoxymethyl)pyrrolidin-1-yl]-3-methyl-1-oxopentan-2-yl}carbamate]	> 9.00	0.013 nM	0.015 nM	> 9.00	0.011 nM	> 9.00	0.291 nM	> 9.00	0.563 nM				
COC(=O)N[C@H](C(=O)N1CCC[C@H]1c1ncc(-c2ccc3c(c2)COc2cc4c(ccc5nc([C@@H]6CCCN6C(=O)[C@H](NC(=O)C6CC6)c6ccccc6)[nH]c54)cc2-3)[nH]1)C(C)C [Compound 516]	> 9.00	0.015 nM	0.024 nM	> 9.00	0.009 nM	> 9.00		> 9.00		0.013 nM	> 9.00	0.025 nM	pEC50 [6]: > 9.00; EC50 [6]: 0.005 nM; EC50 ([4]; read-out: 2a J6 (s) (nM)): 0.043 nM; EC50 ([7]; read-out: 4a (t) (nM)): 0.01 nM
COC[C@H]1C[C@@H](c2nc3ccc4cc5c(cc4c3[nH]2)OCc2cc(-c3cnc([C@@H]4CC[C@H](C)N4C(=O)[C@@H](NC(=O)OC)[C@@H](C)OC)[nH]3)ccc2-5)N(C(=O)[C@@H](NC(=O)OC)[C@@H](C)OC)C1 [Compound 646]													EC50 ([1]; read-out: 1a (nM) EC50): 0.058 nM; pEC50 ([1]; read-out: 1a EC50 range): > 9.00; EC50 ([2]; read-out: 1b (nM) EC50): 0.109 nM; EC50 ([3]; read-out: 2a JFH (nM) EC50): 0.03 nM; pEC50 ([3]; read-out: 2a JFH EC50 range): > 9.00; pEC50 ([4]; read-out: 2a J6 EC50 range): > 9.00; EC50 ([4]; read-out: 2a Jb (t) (nM) EC50): 0.042 nM; EC50 ([5]; read-out: 2b (s) (nM) EC50): 0.262 nM; EC50 ([5]; read-out: 2b (t) (nM) EC50): 0.112 nM; pEC50 ([5]; read-out: 2b EC50 range): > 9.00; EC50 ([7]; read-out: 4a (s) (nM) EC50): 0.034 nM; pEC50 ([7]; read-out: 4a EC50 range): > 9.00
COC(=O)N[C@H](C(=O)N1[C@@H]2C[C@@H]2C[C@H]1c1ncc(-c2ccc3c(c2)COc2cc4c(ccc5nc([C@@H]6C[C@H](COC(F)F)CN6C(=O)[C@H](NC(=O)OC)c6ccccc6)[nH]c54)cc2-3)[nH]1)C(C)C [Example MW]	> 9.00	0.012 nM	0.026 nM	> 9.00	0.012 nM	> 9.00	0.02 nM	> 9.00	0.043 nM	0.123 nM	> 9.00	0.011 nM	
COC[C@H]1C[C@@H](c2nc3ccc4cc5c(cc4c3[nH]2)OCc2cc(-c3cnc([C@@H]4C[C@H](C)CN4C(=O)[C@@H](NC(=O)OC)[C@@H](C)OC)[nH]3)ccc2-5)N(C(=O)[C@@H](NC(=O)OC)[C@@H](C)OC)C1 [Example NK, Methyl {(2S,3R)-3-methoxy-1-[(2S,4S)-2-[9-(2-{(2S,4S)-1-[N-(methoxycarbonyl)-O-methyl-L-threonyl]-4-methylpyrrolidin-2-yl}-1H-imidazol-5-yl)-1,11-dihydroisochromeno[4′,3′:6,7]naphtho[1,2-d]imidazol-2-yl]-4-(methoxymethyl)pyrrolidin-1-yl]-1-oxobutan-2-yl}carbamate]	> 9.00	0.049 nM	0.081 nM	> 9.00	0.018 nM	> 9.00	0.056 nM	> 9.00	0.154 nM				
COC(=O)N[C@H](C(=O)N1[C@@H](C)CC[C@H]1c1ncc(-c2ccc3c(c2)COc2cc4c(ccc5nc([C@@H]6C[C@H](C)CN6C(=O)[C@@H](NC(=O)OC)[C@@H](C)OC)[nH]c54)cc2-3)[nH]1)C(C)C [Example NL, Methyl {(2S)-1-[(2S,5S)-2-(5-{2-[(2S,4S)-1-{(2S,3R)-3-methoxy-2-[(methoxycarbonyl)amino]butanoyl}-4-methylpyrrolidin-2-yl]-1,11-dihydroisochromeno[4′,3′:6,7]naphtho[1,2-d]imidazol-9-yl}-1H-imidazol-2-yl)-5-methylpyrrolidin-1-yl]-3-methyl-1-oxobutan-2-yl}carbamate]	> 9.00	0.011 nM	0.013 nM	> 9.00	0.007 nM	> 9.00	0.043 nM	> 9.00	0.034 nM				
COC[C@H]1C[C@@H](c2nc3ccc4cc5c(cc4c3[nH]2)OCc2cc(-c3cnc([C@@H]4CCCN4C(=O)[C@@H](NC(=O)OC)[C@@H](C)OC)[nH]3)ccc2-5)N(C(=O)[C@H](NC(=O)OC)c2ccccc2)C1 [Example OT, Methyl {(1R)-2-[(2S,4S)-2-(9-{2-[(2S)-1-{(2S,3R)-3-methoxy-2-[(methoxycarbonyl)amino]butanoyl}pyrrolidin-2-yl]-1H-imidazol-5-yl}-1,11-dihydroisochromeno[4′,3′:6,7]naphtho[1,2-d]imidazol-2-yl)-4-(methoxymethyl)pyrrolidin-1-yl]-2-oxo-1-phenylethyl}carbamate]	> 9.00	0.011 nM	0.02 nM	> 9.00	0.005 nM	> 9.00	0.013 nM	> 9.00	0.012 nM				pEC50 [6]: > 9.00; EC50 [6]: 0.024 nM; pEC50 [8]: > 9.00; EC50 [8]: 0.041 nM
COC[C@H]1C[C@@H](c2nc3ccc4cc5c(cc4c3[nH]2)OCc2cc(-c3cnc([C@@H]4C[C@H](C(F)(F)F)CN4C(=O)[C@@H](NC(=O)OC)C(C)C)[nH]3)ccc2-5)N(C(=O)[C@H](NC(=O)OC)c2ccccc2)C1 [Example PJ, methyl {(1R)-2-[(2S,4S)-2-(9-{2-[(2S,4S)-1-{(2S)-2-[(methoxycarbonyl)amino]-3-methylbutanoyl}-4-(trifluoromethyl)pyrrolidin-2-yl]-1H-imidazol-5-yl}-1,11-dihydroisochromeno[4′,3′:6,7]naphtho[1,2-d]imidazol-2-yl)-4-(methoxymethyl)pyrrolidin-1-yl]-2-oxo-1-phenylethyl}carbamate]													EC50 ([1]; read-out: 1a (nM) EC50): 0.068 nM; pEC50 ([1]; read-out: 1a EC50 range): > 9.00; EC50 ([2]; read-out: 1b (nM) EC50): 0.088 nM; EC50 ([3]; read-out: 2a JFH (nM) EC50): 0.058 nM; pEC50 ([3]; read-out: 2a JFH EC50 range): > 9.00; pEC50 ([4]; read-out: 2a J6 EC50 range): > 9.00; EC50 ([4]; read-out: 2a Jb (t) (nM) EC50): 0.136 nM; EC50 ([5]; read-out: 2b (s) (nM) EC50): 0.854 nM; EC50 ([5]; read-out: 2b (t) (nM) EC50): 0.335 nM; pEC50 ([5]; read-out: 2b EC50 range): > 9.00; EC50 ([7]; read-out: 4a (s) (nM) EC50): 0.056 nM; pEC50 ([7]; read-out: 4a EC50 range): > 9.00
COC(=O)N[C@H](C(=O)N1C[C@@H](COC(F)F)C[C@H]1c1nc2ccc3cc4c(cc3c2[nH]1)OCc1cc(-c2cnc(C3CCCN3C(=O)OC(C)(C)C)[nH]2)ccc1-4)C(C)C (stereo partly drawn) [Example PQ, tert-butyl 2-[5-(2-{(2S,4S)-4-[(difluoromethoxy)methyl]-1-[N-(methoxycarbonyl)-L-valyl]pyrrolidin-2-yl}-1,11-dihydroisochromeno[4′,3′:6,7]naphtho[1,2-d]imidazol-9-yl)-1H-imidazol-2-yl]pyrrolidine-1-carboxylate]	> 9.00	0.014 nM	0.014 nM	> 9.00	0.005 nM	> 9.00	0.025 nM	> 9.00	0.032 nM	0.057 nM	> 9.00	0.017 nM	EC50 ([4]; read-out: 2a J6 (s) (nM)): 0.155 nM; EC50 ([7]; read-out: 4a (t) (nM)): 0.015 nM; pEC50 [8]: > 9.00; EC50 [8]: 0.106 nM
